From patent publication US20250099474A1 (priority 2022, published 2025)

What was measured:
[1] = Phase I clinical study Part 1, single administration, pharmacokinetics and safety; type: in vivo, human; conditions: phase 1 study
Protocol: Test Example 3-1 Phase I Clinical Study
All studies were conducted based on Good Clinical Practice (GCP). The phase I clinical study was composed of Part 1 to Part 7, and in Part 1, the safety, tolerability, and pharmacokinetics were confirmed when the fumaric acid cocrystal Form I crystal of the compound represented by Formula (I) was administered once and when it was administered repeatedly.
The subjects who were determined to be eligible by the screening examination were randomly assigned to either the active drug group (see the following table for the dose of the fumaric acid cocrystal Form I crystal of the compound represented by Formula (I)) or the placebo group on the day before the day of administration of the investigational new drug (Day −1). On Day 1, the investigational new drug (active drug or placebo) was administered once in the fasted state.

SARS-CoV-2 = test: Phase 2/3 study, Phase 2b Part: score of 12 COVID-19 symptoms per unit time; type: in vivo, human
Protocol: The primary endpoints of Phase 2b Part were the time-weighted average change in the total score of 12 COVID-19 symptoms per unit time from the start of the first administration (Day 1) to 120 hours (Day 6), and the change from baseline in SARS-CoV-2 virus titer on Day 4, in mild/moderate SARS-CoV-2-infected patients, and the clinical improvement and the antiviral effect of the active drug were confirmed.
The administration of the active drug is repeated oral administration once a day for 5 days. The 375/125 mg group received 375 mg on Day 1 as a loading dose and 125 mg on Days 2 to 5 as a maintenance dose. The 750/250 mg group received 750 mg on Day 1 as a loading dose and 250 mg on Days 2 to 5 as a maintenance dose.
The primary efficacy endpoints of Phase 2b Part for mild/moderate SARS-CoV-2-infected patients were the time-weighted average change in the total score of 12 COVID-19 symptoms per unit time from the start of the first administration (Day 1) to 120 hours (Day 6), and the change from baseline in SARS-CoV-2 virus titer on Day 4. The total score of 12 COVID-19 symptoms is the sum of the scores determined by evaluation in four grades (0: none, 1: mild, 2: moderate, 3: severe) in the subject daily records for each of the 12 COVID-19 symptoms (low energy and tiredness, muscle or body aches, headache, chills or shivering, feeling hot or feverish, stuffy and runny nose, sore throat, cough, shortness of breath (difficulty breathing), nausea, vomiting, diarrhea).
Pairwise comparison was performed between each active drug dose group and the placebo group. […] Pairwise comparison was performed between each active drug dose group and the placebo group.
The results of classifying the twelve COVID-19 symptoms shown in the above (2-a) into 5 types (acute symptoms, major clinical symptoms, respiratory symptoms, systemic symptoms, and gastrointestinal symptoms) and analyzing the same (ITT population) are shown in the following table. • Acute symptoms: sore throat, cough, feeling hot and feverish • Major clinical symptoms: stuffy and runny nose, sore throat, cough, chills or shivering, feeling hot or feverish • Respiratory symptoms: stuffy and runny nose, sore throat, cough, shortness of breath (difficulty breathing) • Systemic symptoms: low energy and tiredness, muscle or body aches, headache, chills or shivering, feeling hot or feverish • Gastrointestinal symptoms: nausea, vomiting, diarrhea

[2] = ITT population, 375/125 mg group
[3] = ITT population, 750/250 mg group

Cn1cnc(Cn2c(=O)[nH]/c(=N\c3cc4cn(C)nc4cc3Cl)n(Cc3cc(F)c(F)cc3F)c2=O)n1 [(6E)-6-[(6-chloro-2-methyl-2H-indazol-5-yl)imino]-3-[(1-methyl-1H-1,2,4-triazol-3-yl)methyl]-1-[(2,4,5-trifluorophenyl)methyl]-1,3,5-triazinane-2,4-dione]
serious adverse events [1]: no serious adverse events for which a causal relationship cannot be denied were reported | Respiratory symptoms sub-total score as compared with the placebo group (SARS-CoV-2; 375/125 mg group (p=0.0153) and 750/250 mg group (p=0.0032)): a significant improving effect was observed | Change up to 120 hours in total score of 12 COVID-19 symptoms per unit time as compared with the placebo group (SARS-CoV-2; 375/125 mg group and 750/250 mg group): a numerical decrease tendency was observed as compared with the placebo group, but a statistically significant difference was not observed | Change from baseline up to 120 hours in sub-total score per unit time, acute symptoms: Adjusted mean value by covariance analysis (standard error) (SARS-CoV-2; [2]): −2.36 (0.10) | Change from baseline up to 120 hours in sub-total score per unit time, acute symptoms: Difference of adjusted mean value from that of placebo group (standard error) (SARS-CoV-2; [2]): −0.20 (0.12) | Change from baseline up to 120 hours in sub-total score per unit time, acute symptoms: Maximum value (SARS-CoV-2; [2]): 0.45 | Change from baseline up to 120 hours in sub-total score per unit time, acute symptoms: Mean value (SARS-CoV-2; [2]): −2.52 | Change from baseline up to 120 hours in sub-total score per unit time, acute symptoms: Median value (SARS-CoV-2; [2]): −2.55 | Change from baseline up to 120 hours in sub-total score per unit time, acute symptoms: Minimum value (SARS-CoV-2; [2]): −6.19 | Change from baseline up to 120 hours in sub-total score per unit time, gastrointestinal symptoms: Adjusted mean value by covariance analysis (standard error) (SARS-CoV-2; [2]): −1.27 (0.14) | Change from baseline up to 120 hours in sub-total score per unit time, gastrointestinal symptoms: Difference of adjusted mean value from that of placebo group (standard error) (SARS-CoV-2; [2]): 0.06 (0.18) | Change from baseline up to 120 hours in sub-total score per unit time, gastrointestinal symptoms: Maximum value (SARS-CoV-2; [2]): −0.16 | Change from baseline up to 120 hours in sub-total score per unit time, gastrointestinal symptoms: Mean value (SARS-CoV-2; [2]): −1.39 | Change from baseline up to 120 hours in sub-total score per unit time, gastrointestinal symptoms: Median value (SARS-CoV-2; [2]): −0.99 | Change from baseline up to 120 hours in sub-total score per unit time, gastrointestinal symptoms: Minimum value (SARS-CoV-2; [2]): −5.80 | Change from baseline up to 120 hours in sub-total score per unit time, major clinical symptoms: Adjusted mean value by covariance analysis (standard error) (SARS-CoV-2; [2]): −3.34 (0.14) | Change from baseline up to 120 hours in sub-total score per unit time, major clinical symptoms: Difference of adjusted mean value from that of placebo group (standard error) (SARS-CoV-2; [2]): −0.34 (0.17) | Change from baseline up to 120 hours in sub-total score per unit time, major clinical symptoms: Maximum value (SARS-CoV-2; [2]): 0.55 | Change from baseline up to 120 hours in sub-total score per unit time, major clinical symptoms: Mean value (SARS-CoV-2; [2]): −3.56 | Change from baseline up to 120 hours in sub-total score per unit time, major clinical symptoms: Median value (SARS-CoV-2; [2]): −3.33 | Change from baseline up to 120 hours in sub-total score per unit time, major clinical symptoms: Minimum value (SARS-CoV-2; [2]): −9.76 | Change from baseline up to 120 hours in sub-total score per unit time, respiratory symptoms: Adjusted mean value by covariance analysis (standard error) (SARS-CoV-2; [2]): −2.09 (0.12) | Change from baseline up to 120 hours in sub-total score per unit time, respiratory symptoms: Difference of adjusted mean value from that of placebo group (standard error) (SARS-CoV-2; [2]): −0.37 (0.15) | Change from baseline up to 120 hours in sub-total score per unit time, respiratory symptoms: Maximum value (SARS-CoV-2; [2]): 1.30 | Change from baseline up to 120 hours in sub-total score per unit time, respiratory symptoms: Mean value (SARS-CoV-2; [2]): −2.28 | Change from baseline up to 120 hours in sub-total score per unit time, respiratory symptoms: Median value (SARS-CoV-2; [2]): −1.99 | Change from baseline up to 120 hours in sub-total score per unit time, respiratory symptoms: Minimum value (SARS-CoV-2; [2]): −6.44 | Change from baseline up to 120 hours in sub-total score per unit time, systemic symptoms: Adjusted mean value by covariance analysis (standard error) (SARS-CoV-2; [2]): −3.31 (0.14) | Change from baseline up to 120 hours in sub-total score per unit time, systemic symptoms: Difference of adjusted mean value from that of placebo group (standard error) (SARS-CoV-2; [2]): 0.15 (0.18) | Change from baseline up to 120 hours in sub-total score per unit time, systemic symptoms: Maximum value (SARS-CoV-2; [2]): 1.80 | Change from baseline up to 120 hours in sub-total score per unit time, systemic symptoms: Mean value (SARS-CoV-2; [2]): −3.71 | Change from baseline up to 120 hours in sub-total score per unit time, systemic symptoms: Median value (SARS-CoV-2; [2]): −3.18 | Change from baseline up to 120 hours in sub-total score per unit time, systemic symptoms: Minimum value (SARS-CoV-2; [2]): −14.30 | Change from baseline up to 120 hours in sub-total score per unit time, acute symptoms: Adjusted mean value by covariance analysis (standard error) (SARS-CoV-2; [3]): −2.50 (0.10) | Change from baseline up to 120 hours in sub-total score per unit time, acute symptoms: Difference of adjusted mean value from that of placebo group (standard error) (SARS-CoV-2; [3]): −0.33 (0.12) | Change from baseline up to 120 hours in sub-total score per unit time, acute symptoms: Maximum value (SARS-CoV-2; [3]): 0.52 | Change from baseline up to 120 hours in sub-total score per unit time, acute symptoms: Mean value (SARS-CoV-2; [3]): −2.63 | Change from baseline up to 120 hours in sub-total score per unit time, acute symptoms: Median value (SARS-CoV-2; [3]): −2.71 | Change from baseline up to 120 hours in sub-total score per unit time, acute symptoms: Minimum value (SARS-CoV-2; [3]): −6.93 | Change from baseline up to 120 hours in sub-total score per unit time, gastrointestinal symptoms: Adjusted mean value by covariance analysis (standard error) (SARS-CoV-2; [3]): −1.08 (0.14) | Change from baseline up to 120 hours in sub-total score per unit time, gastrointestinal symptoms: Difference of adjusted mean value from that of placebo group (standard error) (SARS-CoV-2; [3]): 0.25 (0.18)
